Data from US12628802B2, “Genetically modified rat having PKHD1L1 gene with point mutation and methods for its construction, detection and use” (HUASHAN HOSPITAL AFFILIATED TO FUDAN UNIVERSITY, priority 2022, dated 2026).
Entries after “also recorded” stand apart in the source; their conditions may differ.

Legend:
[1] = tested on: pyramidal neurons in the cerebral cortex; test: Patch clamp recording of sEPSC and sIPSC of cortical pyramidal neurons in brain slices; type: cell-based, rat; conditions: epilepsy group (PKHD1L1+/− rats) after H89 treatment
Source text: Results of Electrophysiological Examination of Transgenic Animal Brain Slices
In transgenic animals (PKHD1L1+/− rats), neuronal excitability increased, and H89 reduced the frequency of spontaneous excitatory post synaptic currents (sEPSC) in pyramidal neurons in the cerebral cortex.
A patch clamp technique was used to record sEPSC and sIPSC (e.g., spontaneous inhibitory post synaptic currents) of cortical pyramidal neurons […], and to observe the changes in excitatory synaptic transmission and inhibitory synaptic transmission of pyramidal neurons in each group of rats, so as to reflect any changes in neuronal excitability.

[2] = tested on: pyramidal neurons in the cerebral cortex; test: Recording of the action potential of pyramidal neurons in brain slices; type: cell-based, rat
Procedure: H89 can reduce the excitability of pyramidal neurons in the cerebral cortex of rats with epilepsy. In order to further confirm the excitability of pyramidal neurons in the cerebral cortex, the action potential of pyramidal neurons was recorded. Action potential can intuitively reflect the excitability of neurons. […] Compared with the control group (e.g., WT rats), the positive potential of the epileptic group was decreased after H89 treatment, and the neuronal potential was increased after H89 treatment (P>0.05). There was no difference in the peak and half-duration of the action potential between the two groups. […] It was shown that a reduced neuron action potential threshold in epileptic rats indicates […] of pyramidal neurons, and H89 reversed this trend and improved epileptic symptoms in rats (FIGS. 16A-F).

[3] = tested on: pyramidal neurons in the cerebral cortex; test: Recording of Na+ and K+ currents in pyramidal neurons in brain slices; type: cell-based, rat; conditions: control, epilepsy and epilepsy+H89 groups compared
Procedure: Neuronal excitability is related to Na+ and K+ currents, so the Na+ and K+ currents in pyramidal neurons in the cerebral cortex of each group of rats (e.g., PKHD1L1+/− and wild-type) were recorded. As shown in FIGS. 15A-B, there was no difference in Na+ and K+ currents in pyramidal neurons of rats among all groups (3 young rats in each group, 6 cells in the control [WT] group, 6 cells in the epilepsy [e.g., PKHD1L1+/−] group, and 6 cells in the epilepsy+H89 group), […].

[4] = tested on: wild-type (WT) rats; test: PTZ-induced epilepsy model, wild-type rats; type: in vivo, rat
Procedure: (§1) Subsequently, the epileptic susceptibility of PKHD1L1+/− rats was studied using a PTZ-induced epilepsy model: A total of 10 male PKHD1L1+/− rats and 10 male wild-type (WT) rats with body weights matched with age (in weeks) were selected for inducing epileptic seizures with PTZ (40 mg/kg). The dose of PTZ selected is lower than the conventional dose in such animal modeling. Only 2 out of the 10 wild-type rats (20%), but 7 out of the 10 (70%) PKHD1L1+/− rats, were induced to have grand mal seizures of grade 4-5 (see FIG. 13A).

[5] = tested on: PKHD1L1+/− rats; test: PTZ-induced epilepsy model, PKHD1L1+/- rats; type: in vivo, rat; conditions: PTZ 40 mg/kg
Procedure: as §1

## O=S(=O)(NCCNC/C=C/c1ccc(Br)cc1)c1cccc2cnccc12 [H89]
[1]
  sEPSC amplitude: decreased
  sEPSC frequency: reduced; also recorded: decreased
[2]; between groups
  half-duration of the action potential: no difference
  peak of the action potential: no difference
[2]; epilepsy group after H89 treatment, P<0.05
  action potential threshold: increased
[2]; epilepsy group after H89 treatment, P>0.05
  positive post-potential (neuronal potential) of the action potential: increased
[3]
  K+ currents in pyramidal neurons: no difference
  Na+ currents in pyramidal neurons: no difference

## C1CCc2nnnn2CC1 [PTZ, pentylenetetrazole]
[4]; PTZ 40 mg/kg, 10 male wild-type rats
  rats induced to have grand mal seizures of grade 4-5: 20%
[4]; additional 5 mg/kg at 15-minute intervals, wild-type rats compared with PKHD1L1+/− rats
  mean dose of PTZ required to exhibit grade 4-5 seizures: statistically significantly higher
[5]; 10 male PKHD1L1+/− rats
  rats induced to have grand mal seizures of grade 4-5: 70%
[5]; PKHD1L1+/− rats compared with wild-type rats
  maximum seizure level reached: significantly higher
